pEC50: −log10 of the molar value. Calls of active or inactive are those of the source.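 Rule for the calls: active = a fitted half-maximal concentration EC50 for the rise in nuclear signal no higher than ten times the top dose tested; inconclusive = flat fit with activity between 30% and 70%, or unusable fit; inactive = EC50 beyond ten times the top dose.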
What follows are molecules tested against Hypoxia-inducible factor 1-alpha (Homo sapiens) (UniProt Q16665) (assay: HIF pathway activation, GFP-HIF1alpha translocation – imaging, fluorescence, U2OS GFP-HIF1alpha, confirmation (AID 434951)). Conditions: U2OS GFP-HIF1alpha nuclear intensity, high-content imaging.
Sequence of Hypoxia-inducible factor 1-alpha (Homo sapiens) (Q16665 whole entry, looked up): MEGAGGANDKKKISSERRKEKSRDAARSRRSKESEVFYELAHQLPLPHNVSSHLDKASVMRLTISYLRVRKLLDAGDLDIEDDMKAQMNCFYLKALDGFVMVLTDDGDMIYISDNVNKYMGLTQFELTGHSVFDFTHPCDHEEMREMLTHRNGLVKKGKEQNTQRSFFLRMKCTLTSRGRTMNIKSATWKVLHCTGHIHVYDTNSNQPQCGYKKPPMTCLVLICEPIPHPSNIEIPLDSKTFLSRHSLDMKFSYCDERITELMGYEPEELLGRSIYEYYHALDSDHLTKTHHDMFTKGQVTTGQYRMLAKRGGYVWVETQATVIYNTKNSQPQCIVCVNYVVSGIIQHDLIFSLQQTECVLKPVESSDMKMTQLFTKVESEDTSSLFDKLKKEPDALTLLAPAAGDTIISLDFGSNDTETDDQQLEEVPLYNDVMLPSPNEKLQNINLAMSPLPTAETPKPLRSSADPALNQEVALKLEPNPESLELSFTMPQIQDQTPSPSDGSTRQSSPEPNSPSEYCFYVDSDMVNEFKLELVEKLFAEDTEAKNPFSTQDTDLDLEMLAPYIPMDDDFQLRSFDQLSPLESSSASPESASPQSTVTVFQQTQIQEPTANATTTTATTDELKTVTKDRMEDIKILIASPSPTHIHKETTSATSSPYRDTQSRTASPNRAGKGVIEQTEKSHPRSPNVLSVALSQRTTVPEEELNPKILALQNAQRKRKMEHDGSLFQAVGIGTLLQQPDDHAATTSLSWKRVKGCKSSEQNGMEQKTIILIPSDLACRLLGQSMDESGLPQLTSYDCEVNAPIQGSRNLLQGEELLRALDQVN
In the case of `O=C(Nc1ccccc1)N(C1=NCCCCS1)c1cccc2ccccc12`, the EC50 was > 35 µM (inactive).
In the case of `CC1(C)CC(=O)C(C=NCCN2CCN(C(=S)Nc3cccc(Cl)c3)CC2)=C(O)C1`, the EC50 was > 35 µM (inactive).
With `CCOc1ccccc1N(CC(=O)N/N=C/c1cc(Br)ccc1OC)S(C)(=O)=O` the EC50 was > 35 µM (inactive).
In the case of `O=C(NS(=O)(=O)c1ccc2c(c1)OCCO2)c1ccccc1`, the EC50 was > 35 µM (inactive).
Work on `COc1cccc(C(=O)N/N=C(/c2ccccc2)c2ccccn2)c1` yielded a pEC50 of 5.22.
For `CCOC(=O)C(NC(C)=O)(N1CCOCC1)C(F)(F)F` (centres undefined), the EC50 was > 35 µM (inactive).
For `CC(=O)N1CCC(=NNc2nc3ccccc3[nH]2)CC1`, the EC50 was > 35 µM (inactive).
For `C=CCN(c1ccccc1)S(=O)(=O)c1cccc(C(=O)Nc2ncccc2O)c1`, the EC50 was > 35 µM (inactive).
`Cc1c(Cl)c([N+](=O)[O-])nn1Cc1ccc(C(=O)N/N=C\c2cc(Cl)ccc2O)o1` was tested, and the pEC50 was 5.03.
For `COc1ccc2nc(C)cc(SCC(=O)N/N=C/c3ccc(O)cc3O)c2c1`, the pEC50 was 5.06.
`Cc1ccc(C2(C)NC(=O)N(CC(=O)Nc3ccccc3N3CCCC3)C2=O)cc1` (centres undefined) was tested, and the EC50 was > 35 µM (inactive).
`O=C(/C=C/c1ccco1)Oc1cc(Br)cc(/C=N/NC(=O)c2ccccc2O)c1` showed a pEC50 of 5.27.
In the case of `COc1ccc(-c2cc(C(F)(F)F)nc(S(=O)(=O)CCCC(=O)Nc3cc(C)on3)n2)cc1OC`, the EC50 was > 35 µM (inactive).
For `CCc1ccc(NC(=O)COC(=O)c2cccs2)cc1`, the EC50 was > 35 µM (inactive).
With `O=C(COC(=O)c1ccccc1Nc1ccccc1)NCc1ccccc1Cl` the EC50 was > 35 µM (inactive).
For `CCOc1ccc(/C=C/C(=O)c2ccccc2)cc1OC`, the pEC50 was 4.71.
For `CNC(=O)C1CC(=O)N(c2ccc(OCC(=O)N3CCCC3)cc2)C1` (centres undefined), the EC50 was > 35 µM (inactive).
For `CC(C)COc1ccc(C(=O)Nc2ccc([N+](=O)[O-])cc2)cc1`, the EC50 was > 35 µM (inactive).
For `CCOC(=O)Cc1nn(CC)c(=O)c2ccccc12`, the EC50 was > 35 µM (inactive).
In the case of `Cc1cccc(NC(=O)C2CC(=O)NC(Nc3nc4ccccc4s3)=N2)c1` (centres undefined), the EC50 was > 35 µM (inactive).
For `CC(=O)NC(c1cccc([N+](=O)[O-])c1)c1ccc2cccnc2c1O` (centres undefined), the pEC50 was 4.97.
`O=C(CN1C(=O)COc2ccc(Cl)cc21)Nc1ccc2c(c1)OCCO2` was tested, and the EC50 was > 35 µM (inactive).
With `Cc1cc(C)c(NS(=O)(=O)c2ccc3c(c2)NC(=O)CCS3)c(C)c1` the EC50 was > 35 µM (inactive).
With `CCOC(=O)C1=C(C)NC(C)=C(C(=O)OCC)C1C(=O)OCC(=O)N(C)C1CCS(=O)(=O)C1` (centres undefined) the EC50 was > 35 µM (inactive).
In the case of `CCOC(=O)c1cnc(-n2nc(C)cc2C)nc1NNc1nc(-c2ccccc2)cc(-c2ccccc2)n1`, the pEC50 was 5.74.
In the case of `O=C(CS(=O)(=O)c1ccccc1)Nc1ccc(N2CCOCC2)cc1`, the EC50 was > 35 µM (inactive).
In the case of `CC1=NC(C#N)=C(C#N)NC(C)(C)C1`, the EC50 was > 35 µM (inactive).
For `O=C(O)c1ccc2cc(-c3ccccc3)[nH]c2c1`, the EC50 was > 35 µM (inactive).
With `CCn1c(SCC(=O)c2cc(C)ccc2C)nc2cc(S(=O)(=O)N3CCOCC3)ccc21` the EC50 was > 35 µM (inactive).
For `CCC(=O)c1ccc(N2CCN(C(=O)c3ccc(Br)cc3)CC2)c(F)c1`, the EC50 was > 35 µM (inactive).
In the case of `COc1ccccc1C/C(N)=N/O`, the EC50 was > 35 µM (inactive).
In the case of `CCN(CC)CCn1c2ccccc2c2cnc(N)c(C#N)c21`, the EC50 was > 35 µM (inactive).
For `O=C1CCCc2ccccc2N1Cc1ccc(F)cc1`, the EC50 was > 35 µM (inactive).
`Cn1cccc1C(=O)NC(=O)COC(=O)c1cc(S(=O)(=O)N2CCCCC2)ccc1Cl` was tested, and the EC50 was > 35 µM (inactive).
For `Oc1[nH]c2ccc(Br)cc2c1N=NC(=S)N1CCOCC1`, the pEC50 was 5.17.
`COCCN=c1scc(-c2cc(OC)c(OC)c(OC)c2)n1/N=C/c1c(C)[nH]c2ccccc12` was tested, and the EC50 was > 35 µM (inactive).
`COc1ccc(C(NC(C)=O)c2ccc3cccnc3c2O)c(OC)c1` (centres undefined) gave a pEC50 of 4.96.
Molecule `Oc1ccccc1C(Nc1nccs1)c1ccc2cccnc2c1O` (centres undefined) has a pEC50 of 5.18.
In the case of `Cn1ncc(Br)c1C(=O)OCC(=O)Nc1nc(-c2ccccc2)cs1`, the EC50 was > 35 µM (inactive).
`Cn1c(CC(=O)Nc2ccccc2)cc2ccccc21` was tested, and the EC50 was > 35 µM (inactive).
`CN(C)c1nc(-c2ccccn2)nnc1-c1ccccc1` gave a pEC50 of 5.17.
For `Cc1cccc(OCCn2cccc2/C=C2/C(=O)NC(=O)N(Cc3ccco3)C2=O)c1`, the EC50 was > 35 µM (inactive).
With `Cc1ccc(C)c(CNS(=O)(=O)c2ccc3c(c2)C(C)(C)C(=O)N3C)c1` the EC50 was > 35 µM (inactive).
`COc1ccc(C/C(C)=N/NS(=O)(=O)c2ccc(Br)cc2)cc1` was tested, and the EC50 was > 35 µM (inactive).
With `O=C(c1ccc(Cl)cc1Cl)N1CCN(c2ccc(N3CCOCC3)nn2)CC1` the EC50 was > 35 µM (inactive).
With `COc1ccc(F)cc1CSc1nnnn1-c1ccc(O)cc1` the EC50 was > 35 µM (inactive).
`O=[N+]([O-])c1ccc(OCCCCN2CCCCC2)cc1` was tested, and the EC50 was > 35 µM (inactive).
Molecule `CC(=O)NC(c1ccc2ccccc2c1)c1ccc2cccnc2c1O` (centres undefined) has a pEC50 of 5.07.
`CCn1ccnc1C(O)c1ccccc1OC` (centres undefined) was tested, and the EC50 was > 35 µM (inactive).
In the case of `CCNS(=O)(=O)c1ccc(NC(=O)c2cncc(Br)c2)cc1`, the EC50 was > 35 µM (inactive).
With `CC1CN(S(=O)(=O)c2cccc(C(=O)N(CCc3ccccc3)Cc3ccccc3)c2)CC(C)O1` (centres undefined) the EC50 was > 35 µM (inactive).
In the case of `Cc1ccccc1-n1c(=O)n(Cc2ccc(C(=O)O)cc2)c(=O)c2[nH]cnc21`, the EC50 was > 35 µM (inactive).
Work on `CC(C)C(=O)NC(c1ccc(Cl)cc1Cl)c1ccc2cccnc2c1O` (centres undefined) yielded a pEC50 of 5.31.
With `Cc1nc2nc3c(cn2n1)C(=O)CC(c1ccccc1)C3` (centres undefined) the EC50 was > 35 µM (inactive).
`O=C(NC(c1ccccc1)c1ccccc1)C1CCCO1` (centres undefined) was tested, and the EC50 was > 35 µM (inactive).
With `NS(=O)(=O)c1ccc(CNC(=O)c2csc3c2CCCC3)cc1` the EC50 was > 35 µM (inactive).
In the case of `COC(=O)c1cc(S(=O)(=O)NCc2ccccc2OC)cn1C`, the EC50 was > 35 µM (inactive).
In the case of `COc1ccc(O)c(/C=N/NC(=S)Nc2cccc(S(=O)(=O)N(C)C)c2)c1`, the EC50 was > 35 µM (inactive).
`Cc1cccc(NC(=O)COc2cccc3c2CCN(C)C3=O)c1C` was tested, and the EC50 was > 35 µM (inactive).
`Cc1sc(NC(=O)c2ccco2)c(CN2CCC(C)CC2)c1C` was tested, and the EC50 was > 35 µM (inactive).
`Oc1cccc(C(Nc2nccs2)c2ccc3cccnc3c2O)c1` (centres undefined) gave a pEC50 of 5.16.
With `COc1ccccc1NC(c1cccnc1)c1ccc2cccnc2c1O` (centres undefined) the pEC50 was 4.59.
Molecule `CCOc1cccc(/C=N/Nc2ccc(S(=O)(=O)N(CC)CC)cn2)c1O` has a pEC50 of 5.45.
With `CC(=O)Nc1sc(-c2ccccc2)nc1-c1ccccc1` the EC50 was > 35 µM (inactive).
In the case of `CCN(CC)c1ccc(/C=N/Nc2nc3ccccc3[nH]2)c(O)c1`, the pEC50 was 5.16.
With `COc1ccccc1N1CCN(CCCNC(=O)C2CCCN(c3ncnc4c3nc3n4CCCCC3)C2)CC1` (centres undefined) the EC50 was > 35 µM (inactive).
For `COc1ccc(N(CC(=O)Nc2cc(OC)ccc2OC)S(=O)(=O)c2c(C)noc2C)cc1`, the EC50 was > 35 µM (inactive).
`COc1cc(SC)ccc1C(=O)Nc1ccc(C)cc1C` was tested, and the EC50 was > 35 µM (inactive).
`CN(C)C(=O)CSc1nc2ccccc2n1Cc1ccccc1` was tested, and the EC50 was > 35 µM (inactive).
`CCOCCCNC(=S)Nc1cc(C)cc(C)c1` was tested, and the EC50 was > 35 µM (inactive).
For `Cn1c(CCNC(=O)c2ccco2)nc2cc(NC(=O)C3CCCCC3)ccc21`, the EC50 was > 35 µM (inactive).
Work on `Cc1nc(-n2[nH]c3c(c2=O)CCCC3)[nH]c(=O)c1Cc1ccccc1` yielded a pEC50 of 5.03.
With `C=CCOc1nc(-c2ccccc2Cl)nc2ccccc12` the EC50 was > 35 µM (inactive).
`C=CCc1c(C)nc2c(-c3ccccc3)cnn2c1N1CCOCC1` was tested, and the EC50 was > 35 µM (inactive).
